The target in assay [1] is human GLP-1 receptor (hGLP-1R) (Homo sapiens, UniProt P43220). The assay is described as follows: cAMP production (HTRF) in CHO cells expressing hGLP-1R. In kind it is cell-based. On the set-up: expressed in transfected cells. To be noted: for EC50: Table 6, peptides modified at position 17, cAMP in CHO hGLP-1R cells, geometric mean, read-out: hGLP-1R EC50; for % Relative Potency Ratio: Table 6, % GLP-1R activity relative to GLP-1 / % GlucR activity relative to glucagon. The essentials:
(§1)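 Read-out: HTRF cAMP (anti-cAMP cryptate donor, cAMP-d2 acceptor in conjugate/lysis buffer), converted to % Delta F and fitted by 4-parameter logistic for EC50. Cell densities were 1×10^5 cells/mL (hGLP-1R) or 2×10^5 cells/mL (hGCGR). Stimulation lasted 30 min at room temperature.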
In general terms: cAMP levels reflect the balance of adenylyl cyclase and phosphodiesterase activity.

Assay [2] deals with human glucagon receptor (hGCGR) (Homo sapiens, UniProt P47871). The assay is described as follows: cAMP production (HTRF) in CHO cells expressing hGCGR. To be noted: Table 6, peptides modified at position 17; cAMP in CHO hGCGR cells; geometric mean; read-out: hGluc-R EC50. On the set-up: expressed in transfected cells. It is filed as cell-based. The essentials: as §1

Starred links: 1 amine or outer side, 2 acyl side, 3 side chain; linkers in the order of their positions; H or OH if unused. Non-standard residues stand in square brackets, D forms with d. Residues, ends and D or L forms follow the SMILES beside them. Groups on a side chain read outwards from the residue. *: point of attachment. C18 diacid = O=C(O)CCCCCCCCCCCCCCCCC(=O)*; γGlu = O=C(O)[C@H](CCC(=O)[*:2])N[*:1]; αMeF = C[C@](N)(Cc1ccccc1)C(=O)O; AEEA = NCCOCCOCC(=O)O; Aib = CC(C)(N)C(=O)O

By EC50 is commonly meant the concentration needed to bring the measured effect to its halfway point.

Sequence of human glucagon receptor (hGCGR) (P47871 26-477): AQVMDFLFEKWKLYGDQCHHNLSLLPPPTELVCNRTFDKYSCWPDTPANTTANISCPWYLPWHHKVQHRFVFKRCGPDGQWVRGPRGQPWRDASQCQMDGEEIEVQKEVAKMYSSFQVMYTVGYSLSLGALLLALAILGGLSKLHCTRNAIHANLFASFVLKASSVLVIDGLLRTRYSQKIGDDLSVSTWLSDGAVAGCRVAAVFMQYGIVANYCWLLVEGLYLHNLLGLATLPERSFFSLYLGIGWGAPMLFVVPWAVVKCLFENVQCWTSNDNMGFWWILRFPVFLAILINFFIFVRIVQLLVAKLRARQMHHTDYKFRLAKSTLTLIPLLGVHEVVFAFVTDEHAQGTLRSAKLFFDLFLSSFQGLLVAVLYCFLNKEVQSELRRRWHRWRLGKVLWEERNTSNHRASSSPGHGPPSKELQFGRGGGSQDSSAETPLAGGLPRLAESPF
Sequence of human GLP-1 receptor (hGLP-1R) (P43220 24-463): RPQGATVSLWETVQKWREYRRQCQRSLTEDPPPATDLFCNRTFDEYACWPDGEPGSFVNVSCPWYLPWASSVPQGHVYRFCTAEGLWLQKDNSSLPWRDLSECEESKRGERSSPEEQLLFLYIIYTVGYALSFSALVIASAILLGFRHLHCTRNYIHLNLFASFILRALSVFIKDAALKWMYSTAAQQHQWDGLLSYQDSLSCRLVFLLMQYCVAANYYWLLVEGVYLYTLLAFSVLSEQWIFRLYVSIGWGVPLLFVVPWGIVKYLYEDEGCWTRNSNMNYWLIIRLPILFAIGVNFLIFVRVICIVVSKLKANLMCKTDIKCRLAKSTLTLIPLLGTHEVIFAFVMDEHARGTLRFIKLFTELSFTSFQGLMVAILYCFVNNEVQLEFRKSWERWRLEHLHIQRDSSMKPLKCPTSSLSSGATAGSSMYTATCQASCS

On to `CC(C)C[C@H](NC(=O)[C@H](Cc1c[nH]c2ccccc12)NC(=O)[C@H](CCCNC(=N)N)NC(=O)[C@@H](NC(=O)[C@H](Cc1ccccc1)NC(=O)[C@H](CC(=O)O)NC(=O)[C@H](CCC(N)=O)NC(=O)[C@H](C)NC(=O)[C@H](CCCNC(=N)N)NC(=O)[C@H](CCCCNC(=O)COCCOCCNC(=O)COCCOCCNC(=O)CCCCCCCCCCCCCCCCC(=O)O)NC(=O)[C@H](CO)NC(=O)[C@H](CC(=O)O)NC(=O)[C@H](CC(C)C)NC(=O)[C@](C)(Cc1ccccc1)NC(=O)[C@H](CCCCN)NC(=O)[C@H](CO)NC(=O)[C@@H](NC(=O)[C@H](CC(=O)O)NC(=O)[C@H](CO)NC(=O)[C@@H](NC(=O)[C@H](Cc1ccccc1)NC(=O)[C@@H](NC(=O)CNC(=O)[C@H](CCC(N)=O)NC(=O)C(C)(C)NC(=O)[C@@H](N)Cc1c[nH]cn1)[C@@H](C)O)[C@@H](C)O)C(C)C)C(C)C)C(=O)N[C@@H](CC(C)C)C(=O)N[C@@H](CCC(=O)O)C(=O)NC(C)(C)C(=O)NCC(=O)O` [Peptide 181] (H-H[Aib]QGTFTSDVSK[αMeF]LDSK([AEEA-AEEA-C18 diacid])RAQDFVRWLLE[Aib]G-OH; N-terminus assumed), for which, in assay [1], the EC50 came out at 0.056 nM and the “% Relative Potency Ratio” value is given as 1.2. Further, in assay [2], the EC50 was found to be 0.0334 nM.
In the same order, the values of `CC(C)C[C@H](NC(=O)[C@H](Cc1c[nH]c2ccccc12)NC(=O)[C@H](CCCNC(=N)N)NC(=O)[C@@H](NC(=O)[C@H](Cc1ccccc1)NC(=O)[C@H](CC(=O)O)NC(=O)[C@H](CCC(N)=O)NC(=O)[C@H](C)NC(=O)[C@H](CCCNC(=N)N)NC(=O)[C@H](CCCCNC(=O)COCCOCCNC(=O)COCCOCCNC(=O)CC[C@H](NC(=O)CCCCCCCCCCCCCCCCC(=O)O)C(=O)O)NC(=O)[C@H](CCCCN)NC(=O)[C@H](CC(=O)O)NC(=O)[C@H](CC(C)C)NC(=O)[C@](C)(Cc1ccccc1)NC(=O)[C@H](CCCCN)NC(=O)[C@H](CO)NC(=O)[C@@H](NC(=O)[C@H](CC(=O)O)NC(=O)[C@H](CO)NC(=O)[C@@H](NC(=O)[C@H](Cc1ccccc1)NC(=O)[C@@H](NC(=O)CNC(=O)[C@H](CCC(N)=O)NC(=O)C(C)(C)NC(=O)[C@@H](N)Cc1c[nH]cn1)[C@@H](C)O)[C@@H](C)O)C(C)C)C(C)C)C(=O)N[C@@H](CC(C)C)C(=O)N[C@@H](CCC(=O)O)C(=O)NC(C)(C)C(=O)NCC(=O)O` [Peptide 182] (H-H[Aib]QGTFTSDVSK[αMeF]LDKK([AEEA-AEEA-γGlu-C18 diacid])RAQDFVRWLLE[Aib]G-OH) are 0.0291 nM, 1.5 and 0.0226 nM.
Turning to `CC(C)C[C@H](NC(=O)[C@H](Cc1c[nH]c2ccccc12)NC(=O)[C@H](CCCNC(=N)N)NC(=O)[C@@H](NC(=O)[C@H](Cc1ccccc1)NC(=O)[C@H](CC(=O)O)NC(=O)[C@H](CCC(N)=O)NC(=O)[C@H](C)NC(=O)[C@H](CCCNC(=N)N)NC(=O)[C@H](CCCCNC(=O)COCCOCCNC(=O)COCCOCCNC(=O)CC[C@H](NC(=O)CCCCCCCCCCCCCCCCC(=O)O)C(=O)O)NC(=O)[C@H](CO)NC(=O)[C@H](CC(=O)O)NC(=O)[C@H](CC(C)C)NC(=O)[C@](C)(Cc1ccccc1)NC(=O)[C@H](CCCCN)NC(=O)[C@H](CO)NC(=O)[C@@H](NC(=O)[C@H](CC(=O)O)NC(=O)[C@H](CO)NC(=O)[C@@H](NC(=O)[C@H](Cc1ccccc1)NC(=O)[C@@H](NC(=O)CNC(=O)[C@H](CCC(N)=O)NC(=O)C(C)(C)NC(=O)[C@@H](N)Cc1c[nH]cn1)[C@@H](C)O)[C@@H](C)O)C(C)C)C(C)C)C(=O)N[C@@H](CC(C)C)C(=O)N[C@@H](CCC(=O)O)C(=O)NC(C)(C)C(=O)N[C@@H](CCCCN)C(=O)O` [Peptide 183], in assay [1], the EC50 is 0.0237 nM and the “% Relative Potency Ratio” value is given as 6.8. Also, the EC50 in assay [2] was found to be 0.0814 nM.

The values are drawn from patent publication US20250353891A1 (MEDIMMUNE LIMITED, priority 2022, published 2025).
